This is an account of results in paper PMC3375359 (Journal of Medicinal Chemistry, 2012).

Structures are written as SMILES.

T1 sequence (P35372 whole entry): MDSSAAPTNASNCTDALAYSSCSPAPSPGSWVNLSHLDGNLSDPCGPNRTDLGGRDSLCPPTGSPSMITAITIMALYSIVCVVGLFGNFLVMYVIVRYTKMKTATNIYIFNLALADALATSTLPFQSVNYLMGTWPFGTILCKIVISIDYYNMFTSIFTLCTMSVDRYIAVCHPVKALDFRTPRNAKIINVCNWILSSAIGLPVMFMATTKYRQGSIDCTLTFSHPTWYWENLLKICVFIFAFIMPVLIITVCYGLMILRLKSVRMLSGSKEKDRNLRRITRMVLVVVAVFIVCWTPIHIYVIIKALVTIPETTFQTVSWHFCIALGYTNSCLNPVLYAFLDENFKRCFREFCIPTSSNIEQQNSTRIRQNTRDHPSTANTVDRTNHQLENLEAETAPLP
Chain of human μ opioid receptor (P35372 whole entry): as above
Chain of human KOR (P41145 whole entry): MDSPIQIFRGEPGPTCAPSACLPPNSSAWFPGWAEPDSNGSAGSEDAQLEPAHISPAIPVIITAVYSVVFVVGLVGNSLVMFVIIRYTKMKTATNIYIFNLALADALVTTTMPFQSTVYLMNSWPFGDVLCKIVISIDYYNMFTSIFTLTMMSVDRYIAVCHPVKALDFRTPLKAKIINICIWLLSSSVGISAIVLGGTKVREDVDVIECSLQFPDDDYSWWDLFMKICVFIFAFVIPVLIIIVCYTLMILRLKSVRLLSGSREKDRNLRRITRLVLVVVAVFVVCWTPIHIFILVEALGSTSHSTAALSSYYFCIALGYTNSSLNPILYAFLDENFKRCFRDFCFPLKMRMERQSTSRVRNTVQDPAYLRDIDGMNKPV

One assay addresses human KOR (Homo sapiens, UniProt P41145).
Test: not given
The settings on record: from binding affinities.
In the case of `Oc1cccc(CNc2ccc3c(c2)C[C@@H]2[C@@H]4CCCC[C@]34CCN2CC2CC2)c1` [Compound 17, 2-(3′-Hydroxybenzyl)amino-17-cyclopropylmethylmorphinan], the “selectivity KOR over the DORs” value was > 10,000 fold.

Another assay addresses human μ opioid receptor (Homo sapiens, UniProt P35372). In words: [35S]GTPγS binding mediated by the mu opioid receptor. The settings on record: [35S]GTPγS binding assay, in words. It counts as biochemical. (In general: GTPγS resists hydrolysis and so accumulates on activated G proteins.)
Consider `CN1CC[C@]23CCCC[C@H]2[C@H]1Cc1ccc(NCc2cccc(O)c2)cc13` [Compound 4g], for which the “functional activity at MOR (agonist character)” value is given as “full agonist”.

`CN1CC[C@]23c4c5ccc(NCc6cccc(O)c6)c4O[C@H]2[C@@H](O)C=C[C@H]3[C@H]1C5` [Compound 12b, 3-(3′-hydroxybenzyl)amino-7,8-didehydro-4,5-epoxy-17-methyl-(5α,6α)-morphinan-6-ol]: the “functional activity at MOR (agonist character)” value was “full agonists”.

A further assay addresses T1, human MOR (Homo sapiens, UniProt P35372).
Test: not given
The settings on record: Table 1; ratio of Ki values; cited from earlier work.
Consider `CN1CC[C@]23CCCC[C@H]2[C@H]1Cc1ccc(N)cc13` [Compound 2a], for which the “Selectivity MOR/KOR/DOR” value is 1/14/190.

`Nc1ccc2c(c1)[C@@]13CCCC[C@H]1[C@@H](C2)N(CC1CCC1)CC3` [Compound 2b]: the “Selectivity MOR/KOR/DOR” value is recorded as 2/1/100.

As for `c1ccc(CNc2ccc3c(c2)[C@@]24CCCC[C@H]2[C@@H](C3)N(CC2CC2)CC4)cc1` [Compound 8a, reference compound], the “Selectivity MOR/KOR/DOR” value was 1/1/112.

Regarding `c1ccc(CNc2ccc3c(c2)[C@@]24CCCC[C@H]2[C@@H](C3)N(CC2CCC2)CC4)cc1` [Compound 8d, reference compound], the “Selectivity MOR/KOR/DOR” value is 1/2/76.

A further assay has as its target T1, human MOR.
Test: not given
Details: not given
The format is binding.
As to `Nc1ccc2c(c1)[C@@]13CCCC[C@H]1[C@@H](C2)N(CC1CC1)CC3` [Compound 2c], the “Selectivity MOR/KOR/DOR” value is 7/1/830.

In the case of `COc1ccccc1CNc1ccc2c(c1)[C@@]13CCCC[C@H]1[C@@H](C2)N(CC1CCC1)CC3` [Compound 3a, (−)-17-(cyclobutylmethyl)-N-(2-methoxybenzyl)-morphinan-3-amine], the “Selectivity MOR/KOR/DOR” value is recorded as 1/1/28.

As for `COc1cccc(CNc2ccc3c(c2)[C@@]24CCCC[C@H]2[C@@H](C3)N(CC2CCC2)CC4)c1` [Compound 3b, (−)-17-(cyclobutylmethyl)-N-(3-methoxybenzyl)-morphinan-3-amine], the “Selectivity MOR/KOR/DOR” value is on record as 1/5/220.

With `Clc1ccc(CNc2ccc3c(c2)[C@@]24CCCC[C@H]2[C@@H](C3)N(CC2CCC2)CC4)cc1` [Compound 3d, (−)-17-(cyclobutylmethyl)-N-(4-chlorobenzyl)-morphinan-3-amine], the “Selectivity MOR/KOR/DOR” value was 1/3/59.

On to `COc1ccccc1CNc1ccc2c(c1)[C@@]13CCCC[C@H]1[C@@H](C2)N(CC1CC1)CC3` [Compound 3f, (−)-17-(cyclopropylmethyl)-N-(2-methoxybenzyl)-morphinan-3-amine], for which the “Selectivity MOR/KOR/DOR” value was 1/1/130.

Turning to `COc1cccc(CNc2ccc3c(c2)[C@@]24CCCC[C@H]2[C@@H](C3)N(CC2CC2)CC4)c1` [Compound 3g, (−)-17-(cyclopropylmethyl)-N-(3-methoxybenzyl)-morphinan-3-amine], the “Selectivity MOR/KOR/DOR” value is 1/3/220.

In the case of `Oc1ccccc1CNc1ccc2c(c1)[C@@]13CCCC[C@H]1[C@@H](C2)N(CC1CCC1)CC3` [Compound 4a, (−)-17-(cyclobutylmethyl)-N-(2-hydroxybenzyl)-morphinan-3-amine], the “Selectivity MOR/KOR/DOR” value is given as 1/1/65.

As to `Oc1cccc(CNc2ccc3c(c2)[C@@]24CCCC[C@H]2[C@@H](C3)N(CC2CCC2)CC4)c1` [Compound 4b, (−)-17-(cyclobutylmethyl)-N-(3-hydroxybenzyl)-morphinan-3-amine], the “Selectivity MOR/KOR/DOR” value was 1/6/720.

Take `Oc1ccccc1CNc1ccc2c(c1)[C@@]13CCCC[C@H]1[C@@H](C2)N(CC1CC1)CC3` [Compound 4d, (−)-17-(cyclopropylmethyl)-N-(2-hydroxybenzyl)morphinan-3-amine]: the “Selectivity MOR/KOR/DOR” value was 10/1/150.

Regarding `COc1ccccc1CN(C)c1ccc2c(c1)[C@@]13CCCC[C@H]1[C@@H](C2)N(CC1CCC1)CC3` [Compound 5a, (−)-17-(cyclobutylmethyl)-N-methyl-N-(2-methoxybenzyl)-morphinan-3-amine], the “Selectivity MOR/KOR/DOR” value is given as 1/1/14.

In the case of `COc1cccc(CN(C)c2ccc3c(c2)[C@@]24CCCC[C@H]2[C@@H](C3)N(CC2CCC2)CC4)c1` [Compound 5b], the “Selectivity MOR/KOR/DOR” value was 1/2/27.

The same assay, now with this note: Table 1; ratio of Ki values.
Turning to `COc1ccc(CNc2ccc3c(c2)[C@@]24CCCC[C@H]2[C@@H](C3)N(CC2CCC2)CC4)cc1` [Compound 3c, (−)-17-(cyclobutylmethyl)-N-(4-methoxybenzyl)-morphinan-3-amine], the “Selectivity MOR/KOR/DOR” value is recorded as 1/5/300.

As for `c1cc2c(cc1CNc1ccc3c(c1)[C@@]14CCCC[C@H]1[C@@H](C3)N(CC1CCC1)CC4)OCO2` [Compound 3e, (−)-17-(cyclobutylmethyl)-N-(3,4-methylenedioxybenzyl)morphinan-3-amine], the “Selectivity MOR/KOR/DOR” value was 1/3/160.

Turning to `COc1ccc(CNc2ccc3c(c2)[C@@]24CCCC[C@H]2[C@@H](C3)N(CC2CC2)CC4)cc1` [Compound 3h, (−)-17-(cyclopropylmethyl)-N-(4-methoxybenzyl)-morphinan-3-amine], the “Selectivity MOR/KOR/DOR” value is recorded as 1/2/65.

For the compound `c1cc2c(cc1CNc1ccc3c(c1)[C@@]14CCCC[C@H]1[C@@H](C3)N(CC1CC1)CC4)OCO2` [Compound 3i, (−)-17-(cyclopropylmethyl)-N-(3,4-methylenedihydroxybenzyl)-morphinan-3-amine], the “Selectivity MOR/KOR/DOR” value is on record as 1/3/120.

`O=[N+]([O-])c1cccc(CNc2ccc3c(c2)[C@@]24CCCC[C@H]2[C@@H](C3)N(CC2CCC2)CC4)c1` [Compound 3k, (−)-3-(3′-nitrobenzyl)amino-17-cyclobutylmethylmorphinan]: the “Selectivity MOR/KOR/DOR” value is 1/3/350.

`Oc1ccc(CNc2ccc3c(c2)[C@@]24CCCC[C@H]2[C@@H](C3)N(CC2CCC2)CC4)cc1` [Compound 4c, (−)-17-(cyclobutylmethyl)-N-(4-hydroxybenzyl)morphinan-3-amine]: the “Selectivity MOR/KOR/DOR” value is 1/7/340.

As to `Oc1cccc(CNc2ccc3c(c2)[C@@]24CCCC[C@H]2[C@@H](C3)N(CC2CC2)CC4)c1` [Compound 4e, (−)-17-(cyclopropylmethyl)-N-(3-hydroxybenzyl)-morphinan-3-amine], the “Selectivity MOR/KOR/DOR” value was 1/2/260.

For `Oc1ccc(CNc2ccc3c(c2)[C@@]24CCCC[C@H]2[C@@H](C3)N(CC2CC2)CC4)cc1` [Compound 4f, (−)-17-(cyclopropylmethyl)-N-(4-hydroxybenzyl)-morphinan-3-amine], the “Selectivity MOR/KOR/DOR” value is 1/1/44.

As to `CN1CC[C@]23CCCC[C@H]2[C@H]1Cc1ccc(NCc2cccc(O)c2)cc13` [Compound 4g], the “Selectivity MOR/KOR/DOR” value is given as 1/24/1700.

Turning to `COc1ccc(CN(C)c2ccc3c(c2)[C@@]24CCCC[C@H]2[C@@H](C3)N(CC2CCC2)CC4)cc1` [Compound 5c, (−)-17-(cyclobutylmethyl)-N-methyl-N-(4-methyloxybenzyl)-morphinan-3-amine], the “Selectivity MOR/KOR/DOR” value is given as 1/1/34.

For `CN(Cc1ccc(Cl)cc1)c1ccc2c(c1)[C@@]13CCCC[C@H]1[C@@H](C2)N(CC1CCC1)CC3` [Compound 5d, (−)-17-(cyclobutylmethyl)-N-methyl-N-(4-chlorobenzyl)-morphinan-3-amine], the “Selectivity MOR/KOR/DOR” value is given as 1/1/28.

`CN(Cc1cccc(O)c1)c1ccc2c(c1)[C@@]13CCCC[C@H]1[C@@H](C2)N(CC1CCC1)CC3` [Compound 6b]: the “Selectivity MOR/KOR/DOR” value is 1/1/10.

Consider `CN(Cc1ccc(O)cc1)c1ccc2c(c1)[C@@]13CCCC[C@H]1[C@@H](C2)N(CC1CCC1)CC3` [Compound 6c, (−)-17-(cyclobutylmethyl)-N-methyl-N-(4-hydroxybenzyl)-morphinan-3-amine], for which the “Selectivity MOR/KOR/DOR” value was 1/1/170.

The same assay, now with this note: from binding affinities.
As for `CN1CC[C@]23CCCC[C@H]2[C@H]1Cc1ccc(NCc2cccc(O)c2)cc13` [Compound 4g], the “selectivity MOR to DOR” value was about 2000 fold.
